Reference: patent US7932277B2, “Peptide inhibitors of hepatitis C virus replication” (InterMune, Inc., priority 2007, dated 2011)

Key:
[1] = molecular target: T1, NS3/NS4A-2 (full-length HCV NS3 protease complexed with NS4A-2) (Hepatitis C virus genotype 1a, UniProt P27958); assay: NS3 inhibition assay (NS3-NS4 protease assay); format: biochemical; conditions: recombinant full-length NS3/NS4A-2, RETS1 substrate, kinetic fluorescence read; read-out: NS3-NS4 IC50
T1 construct: Recombinant E. coli or Baculovirus full-length NS3; host or cells: E. coli or baculovirus (insect cells)
T1 sequence (P27958 1027-1657, one chain of several): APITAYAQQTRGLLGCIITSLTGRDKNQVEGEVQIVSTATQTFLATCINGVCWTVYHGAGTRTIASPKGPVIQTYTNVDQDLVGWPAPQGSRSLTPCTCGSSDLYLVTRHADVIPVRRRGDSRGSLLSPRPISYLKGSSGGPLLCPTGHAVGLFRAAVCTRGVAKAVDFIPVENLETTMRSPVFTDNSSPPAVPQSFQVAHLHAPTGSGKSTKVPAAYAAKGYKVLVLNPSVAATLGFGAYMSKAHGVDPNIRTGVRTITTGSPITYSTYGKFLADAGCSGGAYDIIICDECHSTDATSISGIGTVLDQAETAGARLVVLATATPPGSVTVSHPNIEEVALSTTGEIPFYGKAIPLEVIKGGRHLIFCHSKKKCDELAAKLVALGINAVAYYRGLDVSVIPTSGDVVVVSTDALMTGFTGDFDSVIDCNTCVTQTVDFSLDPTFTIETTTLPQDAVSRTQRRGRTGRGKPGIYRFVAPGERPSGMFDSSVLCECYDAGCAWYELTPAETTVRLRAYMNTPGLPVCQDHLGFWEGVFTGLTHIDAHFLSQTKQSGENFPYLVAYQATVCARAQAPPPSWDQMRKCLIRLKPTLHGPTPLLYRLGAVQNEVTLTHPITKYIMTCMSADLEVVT
Protocol: Recombinant E. coli or Baculovirus full-length NS3 was diluted to 3.33 μM with assay buffer and transferred material to an eppendorf tube and place in water bath in 4° C. refrigerator. The appropriate amount of NS4A-2 to 8.3 mM in assay buffer was added to equal the volume of NS3 in step 2.1.1 (conversion factor −3.8 mg/272 μL assay buffer). The material was transferred to an eppendorf tube and place in water bath in 4° C. refrigerator.
After equilibration to 4° C., equal volumes of NS3 and NS4A-2 solutions were combined in an eppendorf tube, mix gently with a manual pipettor, and incubate mixture for 15 minutes in the 4° C. water bath. Final concentrations in the mixture are 1.67 μM NS3, 4.15 mM NS4A-2 (2485-fold molar excess NS4A-2).
After 15 minutes at 4° C., the NS3/NS4A-2 eppendorf tube was removed and place it in a room temperature water bath for 10 minutes. NS3/NS4A-2 was aliquoted at appropriate volumes and store at −80° C. (E. coli NS3 run at 2 nM in assay, aliquot at 25 μL. BV NS3 run at 3 nM in assay, aliquot at 30 μL).
Sample compounds were dissolved to 10 mM in DMSO then diluted to 2.5 mM (1:4) in DMSO. Typically, compounds were added to an assay plate at 2.5 mM concentration, yielding upon dilution a starting concentration of 50 microM in the assay inhibition curve. Compounds were serial diluted in assay buffer to provide test solutions at lower concentrations.
The E. coli. NS3/NS4A-2 was diluted to 4 nM NS3 (1:417.5 of 1.67 μM stock−18 μL1.67 μM stock+7497 μL assay buffer). The BV NS3/NS4A-2 was diluted to 6 nM NS3 (1:278.3 of 1.67 μM stock−24 μL1.67 μM stock+6655 μL assay buffer). Using the manual multichannel pipettor, careful not to introduce bubbles into the plate, add 50 μL assay buffer to wells A01-H01 of a black Costar 96-well polypropylene storage plate.
Using the manual multichannel pipettor, careful not to introduce bubbles into the plate, add 50 μL of diluted NS3/NS4A-2 from step 2.2.6 to wells A02-H12 of plate in step 2.2.7. Using the manual multichannel pipettor, careful not to introduce bubbles into the plate, transfer 25 μL of the wells in drug dilution plate in step 2.2.5 to corresponding wells in assay plate in step 2.2.8. Change tips on multichannel pipettor for each row of compounds transferred. Using the manual multichannel pipettor, careful not to introduce bubbles into the plate, mix the wells from the assay plate in step 2.2.9 by aspirating and dispensing 35 μL of the 75 μL in each well five times. Change tips on multichannel pipettor for each row of wells mixed. Cover plate with a polystyrene plate lid and pre-incubate the plate from step 2.2.10 containing NS3 protease and sample compounds 10 minutes at room temperature. While plate from step 2.2.11 is pre-incubating, dilute RETS1 substrate in a 15 mL polypropylene centrifuge tube. Dilute RETS1 substrate to 8 μM (1:80.75 of 646 μM stock−65 μL 646 μM stock+5184 μL assay buffer).
After the plate in step is done pre-incubating, and using the manual multichannel, add 25 μL of substrate to all wells on the plate. Quickly mix the plate as in step 2.2.10, mixing 65 μL of the 100 μL in the wells.
Read the plate in kinetic mode on the Molecular Devices SpectraMax Gemini XS plate reader. Reader settings: Read time: 30 minutes, Interval: 36 seconds, Reads: 51, Excitation λ: 335 nm, Emission λ: 495 nm, cutoff: 475 nm, Automix: off, Calibrate: once, PMT: high, Reads/well: 6, Vmax pts: 21 or 28/51 depending on length of linearity of reaction
IC50s are determined using a four parameter curve fit equation, and converted to Ki's using the following Km's: • Full-length E. coli NS3−2.03 μM • Full-length BV NS3−1.74 μM • where Ki=IC50/(1+[S]/Km)) • Quantitation by ELISA of the Selectable Marker Protein, Neomycin Phosphotransferase II (NPTII) in the HCV Sub-Genomic Replicon, GS4.3

[2] = tested on: HCV sub-genomic replicon (1377/NS3-3') in HuH-7 hepatoma cells (GS4.3); assay: Quantitation by ELISA of NPTII in the HCV sub-genomic replicon, GS4.3; format: cell-based, hepatitis C virus (HCV); conditions: Hepatitis C virus, Huh-7; GS4.3 cells, 72 h incubation, NPTII ELISA; read-out: Replicon EC50
Protocol: The HCV sub-genomic replicon (1377/NS3-3′, accession No. AJ242652), stably maintained in HuH-7 hepatoma cells, was created by Lohmann et al. Science 285: 110-113 (1999). The replicon-containing cell culture, designated GS4.3, was obtained from Dr. Christoph Seeger of the Institute for Cancer Research, Fox Chase Cancer Center, Philadelphia, Pa.
GS4.3 cells were maintained at 37° C., 5% CO2, in DMEM (Gibco 11965-092) supplemented with L-glutamine 200 mM (100×) (Gibco25030-081), non-essential amino acids (NEAA) (Biowhittaker 13-114E), heat-inactivated (HI) Fetal Bovine Serum (FBS) (Hyclone SH3007.03) and 750 μg/mL geneticin (G418)(Gibco 10131-035). Cells were sub-divided 1:3 or 4 every 2-3 days.
24 h prior to the assay, GS4.3 cells were collected, counted, and plated in 96-well plates (Costar 3585) at 7500 cells/well in 100 μL standard maintenance medium (above) and incubated in the conditions above. To initiate the assay, culture medium was removed, cells were washed once with PBS (Gibco 10010-023) and 90 μl Assay Medium (DMEM, L-glutamine, NEAA, 10% HI FBS, no G418) was added. Inhibitors were made as a 10× stock in Assay Medium, (3-fold dilutions from 10 μM to 56 pM final concentration, final DMSO concentration 1%), 10 μL were added to duplicate wells, plates were rocked to mix, and incubated as above for 72 h.
An NPTII Elisa kit was obtained from AGDIA, Inc. (Compound direct ELISA test system for Neomycin Phosphotransferase II, PSP 73000/4800). Manufacturer's instructions were followed, with some modifications. 10×PEB-1 lysis buffer was made up to include 500 μM PMSF (Sigma P7626, 50 mM stock in isopropanol). After 72 h incubation, cells were washed once with PBS and 150 μL PEB-1 with PMSF was added per well. Plates were agitated vigorously for 15 minutes, room temperature, then frozen at −70° C. Plates were thawed, lysates were mixed thoroughly, and 100 μl were applied to an NPTII Elisa plate. A standard curve was made. Lysate from DMSO-treated control cells was pooled, serially diluted with PEB-1 with PMSF, and applied to duplicate wells of the ELISA plate, in a range of initial lysate amount of 150 μL-2.5 μL. In addition, 100 μL buffer alone was applied in duplicate as a blank. Plates were sealed and gently agitated at room temperature for 2 h. Following capture incubation, the plates were washed 5×300 μL with PBS-T (0.5% Tween-20, PBS-T was supplied in the ELISA kit). For detection, a 1× dilution of enzyme conjugate diluent MRS-2 (5×) was made in PBS-T, into which 1:100 dilutions of enzyme conjugates A and B were added, as per instructions. Plates were resealed, and incubated with agitation, covered, room temperature, for 2 h. The washing was then repeated and 100 μL of room temperature TMB substrate was added. After approximately 30 minutes incubation (room temperature, agitation, covered), the reaction was stopped with 50 μL 3M sulfuric acid. Plates were read at 450 nm on a Molecular Devices Versamax plate reader.
Inhibitor effect was expressed as a percentage of DMSO-treated control signal, and inhibition curves were calculated using a 4-parameter equation: y=A+((B−A)/(1+((C/x)^D))), where C is half-maximal activity or EC50.

SMILES	IC50 [1]	EC50 [2]
C=C[C@@H]1C[C@]1(NC(=O)[C@@H]1C[C@@H](OC(=O)N2Cc3cccc(F)c3C2)CN1C(=O)[C@@H](Nc1cncc(C(F)(F)F)c1)C(C)C)C(=O)NS(=O)(=O)C1CC1 [Compound 44, [(3R,5S)-5-((1R,2S)-1-(cyclopropylsulfonylcarbamoyl)-2-vinylcyclopropylcarbamoyl)-1-((S)-3-methyl-2-(5-(trifluoromethyl)pyridin-3-ylamino)butanoyl)pyrrolidin-3-yl]4-fluoroisoindoline-2-carboxylate]	< 100 nM	100 to 1000 nM
CC[C@@H]1C[C@]1(NC(=O)[C@@H]1C[C@@H](OC(=O)N2Cc3cccc(F)c3C2)CN1C(=O)[C@@H](Nc1cccc(C(C)(C)C)c1)C(C)C)C(=O)NS(=O)(=O)C1CC1 [Compound 45, [(3R,5S)-1-((S)-2-(3-tert-butylphenylamino)-3-methylbutanoyl)-5-((1R,2R)-1-(cyclopropylsulfonylcarbamoyl)-2-ethylcyclopropylcarbamoyl)pyrrolidin-3-yl]4-fluoroisoindoline-2-carboxylate]	< 100 nM	< 100 nM
CC[C@@H]1C[C@]1(NC(=O)[C@@H]1C[C@@H](OC(=O)N2Cc3cccc(Cl)c3C2)CN1C(=O)[C@@H](Nc1cccc(C(C)(C)C)c1)C(C)C)C(=O)NS(=O)(=O)C1CC1 [Compound 46, [(3R,5S)-1-((S)-2-(3-tert-butylphenylamino)-3-methylbutanoyl)-5-((1R,2R)-1-(cyclopropylsulfonylcarbamoyl)-2-ethylcyclopropylcarbamoyl)pyrrolidin-3-yl]4-chloroisoindoline-2-carboxylate]	< 100 nM	< 100 nM
CC[C@@H]1C[C@]1(NC(=O)[C@@H]1C[C@@H](OC(=O)N2Cc3cccc(F)c3C2)CN1C(=O)[C@@H](Nc1cccc(C(F)(F)F)c1)C(C)C)C(=O)NS(=O)(=O)C1CC1 [Compound 47, [(3R,5S)-5-((1R,2R)-1-(cyclopropylsulfonylcarbamoyl)-2-ethylcyclopropylcarbamoyl)-1-((S)-3-methyl-2-(3-(trifluoromethyl)phenylamino)butanoyl)pyrrolidin-3-yl]4-fluoroisoindoline-2-carboxylate]	< 100 nM	< 100 nM
CC[C@@H]1C[C@]1(NC(=O)[C@@H]1C[C@@H](OC(=O)N2Cc3cccc(F)c3C2)CN1C(=O)[C@@H](Nc1cncc(C(F)(F)F)c1)C(C)C)C(=O)NS(=O)(=O)C1CC1 [Compound 48, [(3R,5S)-5-((1R,2R)-1-(cyclopropylsulfonylcarbamoyl)-2-ethylcyclopropylcarbamoyl)-1-((S)-3-methyl-2-(5-(trifluoromethyl)pyridin-3-ylamino)butanoyl)pyrrolidin-3-yl]4-fluoroisoindoline-2-carboxylate]	< 100 nM	100 to 1000 nM
CC[C@@H]1C[C@]1(NC(=O)[C@@H]1C[C@@H](OC(=O)N2Cc3cccc(F)c3C2)CN1C(=O)[C@@H](Nc1cccc(C)c1)C(C)C)C(=O)NS(=O)(=O)C1CC1 [Compound 49, [(3R,5S)-5-((1R,2R)-1-(cyclopropylsulfonylcarbamoyl)-2-ethylcyclopropylcarbamoyl)-1-((S)-3-methyl-2-(m-tolylamino)butanoyl)pyrrolidin-3-yl]4-fluoroisoindoline-2-carboxylate]	< 100 nM	100 to 1000 nM
CC[C@@H]1C[C@]1(NC(=O)[C@@H]1C[C@@H](OC(=O)N2Cc3cccc(F)c3C2)CN1C(=O)[C@@H](Nc1cccc(Cl)c1)C(C)C)C(=O)NS(=O)(=O)C1CC1 [Compound 50, [(3R,5S)-1-((S)-2-(3-chlorophenylamino)-3-methylbutanoyl)-5-((1R,2R)-1-(cyclopropylsulfonylcarbamoyl)-2-ethylcyclopropylcarbamoyl)pyrrolidin-3-yl]4-fluoroisoindoline-2-carboxylate]	< 100 nM	< 100 nM
CC[C@@H]1C[C@]1(NC(=O)[C@@H]1C[C@@H](OC(=O)N2Cc3cccc(F)c3C2)CN1C(=O)[C@@H](Nc1cccc(C#N)c1)C(C)C)C(=O)NS(=O)(=O)C1CC1 [Compound 51, [(3R,5S)-1-((S)-2-(3-cyanophenylamino)-3-methylbutanoyl)-5-((1R,2R)-1-(cyclopropylsulfonylcarbamoyl)-2-ethylcyclopropylcarbamoyl)pyrrolidin-3-yl]4-fluoroisoindoline-2-carboxylate]	< 100 nM	100 to 1000 nM
CC[C@@H]1C[C@]1(NC(=O)[C@@H]1C[C@@H](OC(=O)N2Cc3cccc(F)c3C2)CN1C(=O)[C@@H](Nc1ccc(F)c(C(F)(F)F)c1)C(C)C)C(=O)NS(=O)(=O)C1CC1 [Compound 52, [(3R,5S)-5-((1R,2R)-1-(cyclopropylsulfonylcarbamoyl)-2-ethylcyclopropylcarbamoyl)-1-((S)-2-(4-fluoro-3-(trifluoromethyl)phenylamino)-3-methylbutanoyl)pyrrolidin-3-yl]4-fluoroisoindoline-2-carboxylate]	< 100 nM	< 100 nM
